From patent US20250084056A1, “SUBSTITUTED OXOISOINDOLINYL PIPERIDINE-2,6-DIONE COMPOUNDS” (BRISTOL-MYERS SQUIBB COMPANY, priority 2023, published 2025)
pIC50: −log10 of the molar value.

Columns and labels:
Assay type in all cases: cell-based
GSPT1 = GSPT1 (Homo sapiens, UniProt P15170+Q96SW2); assay: GSPT1 Cellular Degradation Assay (DF15-GSPT1-ePL); parameters: expressed in transfected cells; conditions: DF15-GSPT1-ePL cells, 20 hours
Procedure, shortened: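 Human DF15 cells co-expressing a GSPT1–ePL fusion were treated with compound in RPMI 1640/10% FBS for 20 h at 37 °C. GSPT1 level was read by enzyme-fragment-complementation luminescence after 60 min with detection reagent. The reference degrader at […] defined 75% response; DC50 and Dmax were reported.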

Cyclin E1 = Cyclin E1 (Homo sapiens, UniProt P24864+Q96SW2); assay: Cyclin E1 Cellular Degradation Assay (MSD); parameters: endogenous in cells; host or cells: OVCAR3; conditions: for DC50 / Dmax: Cyclin E1 cellular degradation; for Dmax: maximum degradation; for Ratio of GSPT1 DC50/Cyclin E1 DC50: selectivity for degradation of Cyclin E1 over GSPT1
Chain of Cyclin E1 (P24864 whole entry): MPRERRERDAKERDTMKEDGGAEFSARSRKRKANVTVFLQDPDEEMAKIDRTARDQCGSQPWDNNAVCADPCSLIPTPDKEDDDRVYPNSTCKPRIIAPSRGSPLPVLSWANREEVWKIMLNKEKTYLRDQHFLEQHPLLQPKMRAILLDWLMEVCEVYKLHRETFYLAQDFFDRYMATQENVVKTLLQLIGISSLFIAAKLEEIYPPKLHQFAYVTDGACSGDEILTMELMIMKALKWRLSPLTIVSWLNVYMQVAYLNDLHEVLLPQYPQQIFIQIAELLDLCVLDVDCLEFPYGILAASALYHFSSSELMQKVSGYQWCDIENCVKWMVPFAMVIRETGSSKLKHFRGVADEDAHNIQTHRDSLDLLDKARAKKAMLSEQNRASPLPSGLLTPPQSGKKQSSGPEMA
Chain of Cyclin E1 (Q96SW2 whole entry): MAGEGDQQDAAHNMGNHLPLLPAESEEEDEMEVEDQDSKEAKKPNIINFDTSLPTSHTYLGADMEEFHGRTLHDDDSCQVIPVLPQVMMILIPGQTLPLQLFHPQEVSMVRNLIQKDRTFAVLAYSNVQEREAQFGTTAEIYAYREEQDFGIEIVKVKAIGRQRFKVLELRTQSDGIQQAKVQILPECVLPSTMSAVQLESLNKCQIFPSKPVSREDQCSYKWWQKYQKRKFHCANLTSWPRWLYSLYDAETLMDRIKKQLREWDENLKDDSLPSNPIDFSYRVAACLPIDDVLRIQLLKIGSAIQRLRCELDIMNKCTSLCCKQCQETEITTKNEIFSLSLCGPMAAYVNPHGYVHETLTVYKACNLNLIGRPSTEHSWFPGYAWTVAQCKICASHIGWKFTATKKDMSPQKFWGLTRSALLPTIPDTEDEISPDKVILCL
Chain of Cyclin E1 (Q16531 whole entry partner): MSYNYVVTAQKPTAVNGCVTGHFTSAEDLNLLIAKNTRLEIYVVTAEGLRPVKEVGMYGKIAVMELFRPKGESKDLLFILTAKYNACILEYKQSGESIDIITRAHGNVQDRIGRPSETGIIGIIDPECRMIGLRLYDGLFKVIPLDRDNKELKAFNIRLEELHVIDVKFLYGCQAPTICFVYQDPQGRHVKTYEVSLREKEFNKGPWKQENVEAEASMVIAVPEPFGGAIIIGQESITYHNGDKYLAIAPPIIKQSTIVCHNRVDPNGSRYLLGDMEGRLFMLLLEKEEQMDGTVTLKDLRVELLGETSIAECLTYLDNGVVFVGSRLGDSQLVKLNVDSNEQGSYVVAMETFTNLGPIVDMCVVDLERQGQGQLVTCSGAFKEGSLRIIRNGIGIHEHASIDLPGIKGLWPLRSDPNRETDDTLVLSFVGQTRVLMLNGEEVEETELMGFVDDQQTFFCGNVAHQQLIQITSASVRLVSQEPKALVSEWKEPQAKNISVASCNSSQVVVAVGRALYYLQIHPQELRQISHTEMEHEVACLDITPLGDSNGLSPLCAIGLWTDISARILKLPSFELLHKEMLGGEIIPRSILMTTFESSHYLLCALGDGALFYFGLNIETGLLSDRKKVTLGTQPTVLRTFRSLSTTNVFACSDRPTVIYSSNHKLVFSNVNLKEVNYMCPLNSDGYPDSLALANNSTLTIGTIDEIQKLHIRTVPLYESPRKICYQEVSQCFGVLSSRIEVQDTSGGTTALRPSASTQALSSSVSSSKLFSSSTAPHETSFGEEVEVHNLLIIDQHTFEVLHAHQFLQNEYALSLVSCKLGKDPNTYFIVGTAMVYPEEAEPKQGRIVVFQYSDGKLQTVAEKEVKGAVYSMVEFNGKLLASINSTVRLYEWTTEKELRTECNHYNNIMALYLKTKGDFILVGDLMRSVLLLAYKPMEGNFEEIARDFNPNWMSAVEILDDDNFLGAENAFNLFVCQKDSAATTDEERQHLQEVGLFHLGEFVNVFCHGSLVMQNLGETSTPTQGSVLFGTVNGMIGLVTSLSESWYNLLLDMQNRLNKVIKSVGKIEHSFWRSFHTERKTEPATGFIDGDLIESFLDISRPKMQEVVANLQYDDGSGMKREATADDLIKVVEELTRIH
Procedure, shortened: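 OVCAR3 cells treated with compound for 24 h at 37 °C, lysed, and cyclin E1 measured by MSD sandwich immunoassay (rabbit capture, mouse detection anti-CCNE1). Reference degrader at […] defined 110% response; DC50 and Dmax derived from response.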

Phospho-Rb (Ser807/811) = assay: Phospho-Retinoblastoma (pRB) Cellular Assay; conditions: Homo sapiens, OVCAR-3, NIH OVCAR3 cells, 24 hours; for pIC50: concentration giving 50% response; for Emax: maximum response, reference compound at 10 μM = 100%, read-out: pRB Ymax
Procedure, shortened: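 OVCAR3 cells seeded overnight, then dosed with serial dilutions for 24 h at 37° C. Lysed with kit mix plus phosphatase inhibitor, ≥4 h at room temperature, read on EnVision; 100% response set by reference compound at 10 μM, giving IC50 and Ymax.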

Chain of GSPT1 (P15170 whole entry, the tested form may be a part): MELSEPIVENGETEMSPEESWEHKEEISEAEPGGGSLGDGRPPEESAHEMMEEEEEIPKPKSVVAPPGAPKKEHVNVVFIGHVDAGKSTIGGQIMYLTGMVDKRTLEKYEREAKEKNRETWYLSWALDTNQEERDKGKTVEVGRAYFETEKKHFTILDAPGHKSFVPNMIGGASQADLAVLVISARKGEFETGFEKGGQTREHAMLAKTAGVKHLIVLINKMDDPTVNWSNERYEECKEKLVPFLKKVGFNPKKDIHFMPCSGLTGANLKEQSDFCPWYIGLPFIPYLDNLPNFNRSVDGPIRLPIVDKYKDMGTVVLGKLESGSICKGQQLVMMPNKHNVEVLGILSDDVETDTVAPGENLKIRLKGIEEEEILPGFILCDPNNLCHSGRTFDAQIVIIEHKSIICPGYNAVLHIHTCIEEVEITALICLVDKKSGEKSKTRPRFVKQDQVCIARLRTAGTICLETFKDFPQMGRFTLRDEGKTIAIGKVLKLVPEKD
Chain of GSPT1 (Q96SW2 whole entry, the tested form may be a part): as the sequence (Q96SW2 whole entry) above
Chain of GSPT1 (Q16531 whole entry partner, the tested form may be a part): as the sequence (Q16531 whole entry partner) above

Row | Compound | DC50 (GSPT1) | Dmax (GSPT1) | DC50 (Cyclin E1) | Dmax (Cyclin E1) | Ratio of GSPT1 DC50/Cyclin E1 DC50 (Cyclin E1) | pIC50 (Phospho-Rb (Ser807/811)) | Emax (Phospho-Rb (Ser807/811))
1 | COc1c(COC(=O)Nc2ccc(Oc3ccc(F)cc3)cc2C)ccc2c1C(=O)N(C1CCC(=O)NC1=O)C2 (centres unmarked) [Example 51, [2-(2,6-dioxopiperidin-3-yl)-4-methoxy-3-oxo-2,3-dihydro-1H-isoindol-5-yl]methyl N-[4-(4-fluorophenoxy)-2-methylphenyl]carbamate] | > 14000 nM | 16% | 363 nM | 106% | >39 | 6.73 | 109%
2 | COc1cc(Oc2ccc(F)c(Cl)c2)ccc1NC(=O)OCc1ccc2c(c1OC)C(=O)N(C1CCC(=O)NC1=O)C2 (centres unmarked) [Example 100, [2-(2,6-dioxopiperidin-3-yl)-4-methoxy-3-oxo-2,3-dihydro-1H-isoindol-5-yl]methyl N-[4-(3-chloro-4-fluorophenoxy)-2-methoxyphenyl]carbamate] | > 14000 nM | 33% | 327 nM | 112% | >43 | 6.85 | 118%
3 | COc1c(COC(=O)Nc2ccc(Oc3ccc(F)c(Cl)c3)cc2C)ccc2c1C(=O)N(C1CCC(=O)NC1=O)C2 (centres unmarked) [Example 83, [2-(2,6-dioxopiperidin-3-yl)-4-methoxy-3-oxo-2,3-dihydro-1H-isoindol-5-yl]methyl N-[4-(3-chloro-4-fluorophenoxy)-2-methylphenyl]carbamate] | > 14000 nM | 31% | 136 nM | 110% | >103 | 6.76 | 117%
4 | O=C1CCC(N2Cc3ccc(COC(=O)Nc4ccc(Oc5ccc(F)cc5Cl)cc4)c(OC4CCC4)c3C2=O)C(=O)N1 (centres unmarked) [Example 128, [4-cyclobutoxy-2-(2,6-dioxopiperidin-3-yl)-3-oxo-2,3-dihydro-1H-isoindol-5-yl]methyl N-[4-(2-chloro-4-fluorophenoxy)phenyl]carbamate] | > 14000 nM | 10% | 101 nM | 106% | >139 | 6.87 | 124%
5 | COc1c(COC(=O)Nc2ccc(Oc3ccccc3C(F)F)cc2F)ccc2c1C(=O)N(C1CCC(=O)NC1=O)C2 (centres unmarked) [Example 86, [2-(2,6-dioxopiperidin-3-yl)-4-methoxy-3-oxo-2,3-dihydro-1H-isoindol-5-yl]methyl N-{4-[2-(difluoromethyl)phenoxy]-2-fluorophenyl}carbamate] | > 14000 nM | 33% | 205 nM | 107% | >68 | 6.75 | 112%
6 | CC(C)Oc1c(COC(=O)Nc2ccc(Oc3ccccc3)cc2)ccc2c1C(=O)N(C1CCC(=O)NC1=O)C2 (centres unmarked) [Example 57, [2-(2,6-dioxopiperidin-3-yl)-3-oxo-4-(propan-2-yloxy)-2,3-dihydro-1H-isoindol-5-yl]methyl N-(4-phenoxyphenyl)carbamate] | > 14000 nM | 36% | 128 nM | 102% | >109 | 6.67 | 114%
7 | COc1c(COC(=O)Nc2ccc(Oc3ccccc3)cc2)ccc2c1C(=O)N(C1CCC(=O)NC1=O)C2 (centres unmarked) [Example 2, [2-(2,6-dioxopiperidin-3-yl)-4-methoxy-3-oxo-2,3-dihydro-1H-isoindol-5-yl]methyl N-(4-phenoxyphenyl)carbamate] | > 14000 nM | 32% | 78 nM | 108% | >180 | 7.08 | 123%
8 | COc1cc(Oc2ccc(F)c(C)c2)ccc1NC(=O)OCc1ccc2c(c1OC)C(=O)N(C1CCC(=O)NC1=O)C2 (centres unmarked) [Example 97, [2-(2,6-dioxopiperidin-3-yl)-4-methoxy-3-oxo-2,3-dihydro-1H-isoindol-5-yl]methyl N-[4-(4-fluoro-3-methylphenoxy)-2-methoxyphenyl]carbamate] | > 14000 nM | 24% | 357 nM | 106% | >39 | 6.49 | 101%

Continued, in another order:

Row | DC50 (GSPT1) | Dmax (GSPT1) | DC50 (Cyclin E1) | Dmax (Cyclin E1) | Ratio of GSPT1 DC50/Cyclin E1 DC50 (Cyclin E1) | pIC50 (Phospho-Rb (Ser807/811)) | Compound | Emax (Phospho-Rb (Ser807/811))
9 | > 14000 nM | 1% | 26 nM | 108% | >547 | 7.72 | O=C1CCC(N2Cc3ccc(COC(=O)Nc4ccc(Oc5ccc(F)c(F)c5)cc4)c(OC4CCCCC4)c3C2=O)C(=O)N1 (centres unmarked) [Example 137, [4-(cyclohexyloxy)-2-(2,6-dioxopiperidin-3-yl)-3-oxo-2,3-dihydro-1H-isoindol-5-yl]methyl N-[4-(3,4-difluorophenoxy)phenyl]carbamate] | 123%
10 | > 14000 nM | 19% | 84 nM | 107% | >166 | 7.43 | O=C1CCC(N2Cc3ccc(COC(=O)Nc4ccc(Oc5ccc(F)c(F)c5)cc4)c(O[C@@H]4CCOC4)c3C2=O)C(=O)N1 (stereo partly drawn) [Example 153, [2-(2,6-dioxopiperidin-3-yl)-3-oxo-4-[(3R)-oxolan-3-yloxy]-2,3-dihydro-1H-isoindol-5-yl]methyl N-[4-(3,4-difluorophenoxy)phenyl]carbamate] | 124%
11 | > 14000 nM | 7% | 263 nM | 107% | >53 | 7.01 | CC(C)Oc1c(COC(=O)Nc2ccc(Oc3ccc(F)c(F)c3)cc2)ccc2c1C(=O)N([C@H]1CCC(=O)NC1=O)C2 (single isomer, unassigned) [Example 125] | 138%
12 | > 14000 nM | 10% | 62 nM | 102% | >225 | 7.43 | CC(C)(O)COc1c(COC(=O)Nc2ccc(Oc3ccc(F)c(F)c3)cc2F)ccc2c1C(=O)N(C1CCC(=O)NC1=O)C2 (centres unmarked) [Example 161, [2-(2,6-dioxopiperidin-3-yl)-4-(2-hydroxy-2-methylpropoxy)-3-oxo-2,3-dihydro-1H-isoindol-5-yl]methyl N-[4-(3,4-difluorophenoxy)-2-fluorophenyl]carbamate] | 129%
13 | > 14000 nM | 10% | 33 nM | 110% | >423 | 7.12 | O=C1CCC(N2Cc3ccc(COC(=O)Nc4ccc(Oc5ccc(F)cc5F)cc4F)c(O[C@@H]4CCCOC4)c3C2=O)C(=O)N1 (stereo partly drawn) [Example 148, [2-(2,6-dioxopiperidin-3-yl)-4-[(3R)-oxan-3-yloxy]-3-oxo-2,3-dihydro-1H-isoindol-5-yl]methyl N-[4-(2,4-difluorophenoxy)-2-fluorophenyl]carbamate] | 136%
14 | > 14000 nM | 29% | 282 nM | 106% | >50 | 6.19 | COc1c(COC(=O)Nc2ccc(Oc3ccc4sccc4c3)cc2)ccc2c1C(=O)N(C1CCC(=O)NC1=O)C2 (centres unmarked) [Example 114, [2-(2,6-dioxopiperidin-3-yl)-4-methoxy-3-oxo-2,3-dihydro-1H-isoindol-5-yl]methyl N-[4-(1-benzothiophen-5-yloxy)phenyl]carbamate] | 110%
